{"source": "patent US9572786B2", "about": "“Use of capsiate or dihydrocapsidate” (Catholic University Industry Academy Cooperation Foundation, priority 2007, dated 2017)", "key": {"COX-2 [1]": {"test_system": "COX-2", "test": "UV-induced COX-2 expression in mouse skin tissue, Western blotting", "type": "in vivo", "settings": "hairless mouse; 200 μL of 1 mM topically; 4 times of UV irradiation", "method": "(§1) In order to confirm the in vitro experiment result performed on the human keratinocyte HaCaT cells in an animal model, experiment was carried out as follows using hairless mouse (SKH-1). Test groups were as follows: non-treated group—treated with acetone only without UV irradiation; test group A—treated with 200 μL of 1 mM capsiate dissolved in acetone every 24 hours without UV irradiation; control group—treated with UV and acetone; test group B—treated with UV and 200 μL of 1 mM capsiate dissolved in acetone every 24 hours (Unspecified conditions are the same as in Examples 5-7.).\n(§2) Capsiate was applied on the back of the mouse. 1 hour later, UV was irradiated at an intensity of 2.5 kJ/m^2. 1 hour later, capsiate was applied again at the same concentration in order to prevent rash which may occur immediately after UV irradiation. Thereafter, capsiate was applied every 24 hours and UV irradiation was carried out every other day at an intensity of 2.5 kJ/m^2 for 4 times. In order to investigate the change of tissue and intracellular mechanism (signaling), the mouse was euthanized 1 hour after the final UV irradiation. Skin tissue was taken from the back of the mouse and subjected to skin biopsy following observation.\nIn the foregoing, it was confirmed that capsiate suppress inflammatory response, angiogenesis, edema, etc. caused by the UV-induced skin damage. […]"}, "MMP-9": {"test_system": "MMP-9", "test": "UV-induced MMP-9 mRNA expression, RT-PCR", "type": "cell-based, human", "settings": "HaCaT cells; 10, 25, 50 μM; UV 100 J/m^2; 36 hours", "method": "The inhibition effect of capsiate on the expression of MMP-2 and MMP-9, which induce angiogenesis, was investigated through measurement of mRNA expression by RT-PCR and protein expression and activity measurement by zymography.\nIn order to investigate the inhibition effect of capsiate on MMP expression, 5×10^5 HaCaT cells were placed on a 60 mm Petri dish and cultured for 24 hours in DMEM containing 10% FBS. Subsequently, the cells were cultured for 24 hours in DMEM containing 1% FBS until starvation. Then, after treating with capsiate at different concentrations (10 μM, 25 μM, 50 μM) for 30 minutes, followed by washing 3 times with PBS, UV was irradiated at an intensity of 100 J/m^2. Immediately after the UV irradiation, the cells were washed again with PBS and further cultured for 36 hours in DMEM containing 1% FBS, which was treated with capsiate at the same concentration as in the pre-treatment. The degree of intracellular mRNA expression for MMP-2 and MMP-9 was measured by RT-PCR in the same manner as in Example 3. The degree of MMP expression was compared with that of the non-treated group."}, "hairless mouse": {"test_system": "hairless mouse", "test": "UV-induced erythema in hairless mouse", "type": "in vivo", "settings": "200 μL of 1 mM topically, UV 400, 600 and 800 J/m^2, 48 hours later", "method": "When the skin is exposed to UV, erythema, or […] of the skin, occurs accompanied by edema, prior to a variety of cellular changes including inflammation, apoptosis, carcinogenesis, or the like [Tadashi Terui, Hachiro Tagami, Mediators of inflammation involved in UVB erythema, Journal of Dermatological Science 23 Suppl. 1 (2000) S1S5]. In order to investigate the effect of capsiate on erythema accompanied by UV-induced inflammatory response, experiment was carried out as follows using hairless mouse. Test groups were as follows: non-treated group—treated with acetone only without UV irradiation; test group A—treated with 200 μL of 1 mM capsiate dissolved in acetone without UV irradiation; UV group—treated with acetone and UV; test group B—treated with UV and 200 μL of 1 mM capsiate dissolved in acetone every 24 hours.\nAcetone or capsiate diluted in acetone was applied on the back of the mouse of each test group. 1 hour later, a mask was attached on the back of the mouse such that UV could be irradiated only on an area of 1.2 cm×1.2 cm. UV was irradiated at an intensity of 400, 600 and 800 J/m^2. The degree of erythema was measured 48 hours later."}, "VEGF": {"test_system": "VEGF", "test": "VEGF expression in mouse skin, Western blotting", "type": "in vivo", "settings": "treated prior to UV irradiation", "method": "In order to investigate the effect of capsiate on various intracellular angiogenesis-related expression factors, the inhibition effect of capsiate on angiogenesis factors induced by UV was evaluated using the mouse tissue of Example 5.\nWestern blotting was carried out in the same manner as Example 6 using the proteins isolated from the mouse skin tissue of each test group in Example 6, in order to investigate of capsiate on VEGF, which plays an important role in angiogenesis. In order to investigate the level of VEGF expression, VEGF antibody (Santa Cruz, USA) and HRP-conjugated secondary antibody (1:10,000, Zymed) were used."}, "COX-2 [2]": {"test_system": "COX-2", "test": "UV-induced COX-2 expression in mouse skin tissue, immunohistochemical staining", "type": "in vivo", "settings": "hairless mouse; 200 μL of 1 mM topically; 4 times of UV irradiation", "method": "as §1, §2\nIn order to reconfirm this effect, immunohistochemical staining was carried out as follows. […]"}}}
{"smiles": "COc1cc(COC(=O)CCCC/C=C/C(C)C)ccc1O", "note": "[capsiate]", "values": [{"measurement": "expression of COX-2 induced in mouse skin tissue (Western blotting)", "setting": "COX-2 [1]", "value": "remarkably decreased"}, {"measurement": "UV-induced mRNA expression of MMP-9", "setting": "MMP-9", "value": "decreased"}, {"measurement": "degree of erythema", "setting": "hairless mouse", "value": "weaker"}, {"measurement": "level of VEGF expression in the mouse skin tissue", "setting": "VEGF", "value": "decreased"}, {"measurement": "UV-induced increase of COX-2 in mouse skin tissue (immunohistochemical staining)", "setting": "COX-2 [2]", "value": "effectively inhibited"}]}
